Where two headings read alike, the source gives them in different places.
Assays:
[1] = target: T1, α7 nicotinic acetylcholine receptor (Rattus norvegicus, UniProt Q05941); settings: cited from earlier work
T1 construct: expressed in transfected cells; host or cells: KXa7R1 cell line (HEK293)

[2] = tested on: mice; settings: cited from earlier work
[3] = tested on: Treatment Resistant Depression (TRD); assay: Example 5 pilot study: combined subcutaneous/IV and oral ketamine in TRD patients; format: in vivo, human; settings: for mean MADRS reduction: TRD patients
Method: Six patients diagnosed with Treatment Resistant Depression (TRD) received a combined ketamine treatment as outlined below. Their mean age was 53.1 (SD: 9.3). Five of the patients had previously attempted suicide and been admitted to a psychiatric unit. Three patients had received electroconvulsive therapy (ECT).
Five of the patients received oral ketamine of dose range 120-240 mg, (for example three to six capsules of 40 mg/day as described herein), once a week, four days after ketamine subcutaneous (0.5 mg-1.0 mg/kg) was administered once a week.
One patient received ketamine intravenously once a week and oral ketamine twice a week of dose 240 mg (for example, six capsules of 40 mg/day as described herein) each time.
The patients received on average 30.8 weeks (SD:7.7) ketamine subcutaneous-oral treatment and 10.6 weeks (SD: 6.7) ketamine IV-oral treatment.
This pilot study was conducted to explore the safety, tolerability, and potential clinical effectiveness of a treatment with repeated, low-dose oral ketamine capsules.

[4] = cited from earlier work
[5] = tested on: Major Depression Disorder (MDD) and Treatment-resistant depression (TRD); settings: single IV administration, subanaesthetic dose 0.5 mg/kg; cited from earlier work
[6] = tested on: depressive disorder patients; assay: Example 6: subcut/IV ketamine with supplemental oral dose, then oral only; format: in vivo, human
Method: Patients (n=12 patients) were administered a ketamine-based treatment comprising a subcut/IV ketamine dose with a supplemental oral dose (as described herein).

[7] = tested on: depression; settings: oral, 2019 systematic review; cited from earlier work

T1 sequence (Q05941 23-502): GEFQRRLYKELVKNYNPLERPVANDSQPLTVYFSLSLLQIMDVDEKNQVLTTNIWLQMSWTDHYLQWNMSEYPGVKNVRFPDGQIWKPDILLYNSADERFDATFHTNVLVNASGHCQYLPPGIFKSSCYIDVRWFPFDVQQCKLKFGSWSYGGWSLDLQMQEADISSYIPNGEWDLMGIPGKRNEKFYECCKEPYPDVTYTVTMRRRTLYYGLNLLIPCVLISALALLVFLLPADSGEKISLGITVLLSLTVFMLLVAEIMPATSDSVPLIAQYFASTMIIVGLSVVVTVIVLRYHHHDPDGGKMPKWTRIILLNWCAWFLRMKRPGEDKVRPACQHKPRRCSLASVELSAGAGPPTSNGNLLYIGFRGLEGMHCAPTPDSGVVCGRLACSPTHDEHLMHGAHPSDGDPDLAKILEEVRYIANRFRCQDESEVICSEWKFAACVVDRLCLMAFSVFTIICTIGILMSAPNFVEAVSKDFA

NC1(c2ccccc2Cl)CCC=CC1=O (stereo not shown) [dehydronorketamine]
IC50 ([1]; KXa7R1 cell line (HEK293 cells transfected with rat nicotinic acetylcholine receptor genes)): 55 nM | potency as negative allosteric modulator ([1]; KXa7R1 cell line): subanaesthetic and nanomolar potencies

N[C@@]1(c2ccccc2Cl)CCC[C@@H](O)C1=O [(2R,6R)-HNK]
antidepressant-like effects [2]: ketamine-type antidepressant-like effects

NC1(c2ccccc2Cl)CCCC(O)C1=O (stereo not shown) [hydroxynorketamine]
potency as negative allosteric modulator ([1]; KXa7R1 cell line): subanaesthetic and nanomolar potencies

CNC1(c2ccccc2Cl)CCCCC1=O (stereo not shown) [ketamine, Ketamine]
activity at the same concentrations ([1]; KXa7R1 cell line, <1 μM): inactive | response and tolerability of the treatment regimens ([3]; after 45 to 75 minutes after dosing): good response and tolerability in all patients | mean MADRS reduction ([3]; between first and last treatment, subcutaneous-oral ketamine treatment): −5.7 (SD: 11.0) | mean MADRS reduction ([3]; intravenous-oral ketamine treatment): −5.7 (SD: 10.0) | duration of significant improvement of cognition ([3]; one patient, ketamine IV once a week and oral ketamine twice a week 240 mg): 24 to 36 h | severity of adverse events ([3]; repeated, low-dose oral ketamine capsules): Most adverse events were moderate and self-limiting | ketamine cravings or urge to use beyond the prescribed period ([3]; six TRD patients): No participant reported ketamine cravings | onset of moderate discomforts or moderate increase of pre-existing discomforts, reports ([3]; six TRD patients): 32 times | positive effects (reduction of suicidal thoughts, improved mood, cognition, increased energy) ([3]; six TRD patients): Most of the participants reported positive effects | premature discontinuation of treatment ([3]; six TRD patients): none of the participants discontinued treatment prematurely | serious side effects ([3]; six TRD patients): No serious side effects occurred | tolerability of treatment with oral ketamine ([3]; six TRD patients): well-tolerated | Bioavailability ([4]; intranasally): 8-50% | time to peak plasma concentrations ([4]; intravenously): within a minute | Bioavailability ([4]; oral route): 17-20% | time to peak plasma concentrations ([4]; orally): 30 min | Bioavailability ([4]; rectally): up to 30% | Bioavailability ([4]; sublingually): up to 30% | duration of antidepressant effect [5]: 4 to 7 days | time to antidepressant action [5]: ≤ 24 h | response to oral ketamine after stopping initial IV or subcutaneous ketamine treatment ([6]; especially oral twice a week at 160-240 mg): respond very well | remission levels after switch to oral only treatment ([6]; n=12 patients, oral only): maintained their remission levels at the same level as when administered the combination treatment | remission via MADRS scores ([6]; n=12 patients, subcut/IV ketamine dose with supplemental oral dose): ~50% | antidepressant effects [7]: significant antidepressant effects | tolerability [7]: good overall tolerability

NC1(c2ccccc2Cl)CCCCC1=O (stereo not shown) [norketamine]
potency as negative allosteric modulator ([1]; KXa7R1 cell line): subanaesthetic and nanomolar potencies | plasma levels of metabolite relative to ketamine ([4]; following oral administration of ketamine): three times higher than ketamine
